Results published in patent US8642601B2, “Inhibitors of JNK” (Roche Palo Alto LLC, priority 2010, dated 2014).
Counter-ions that a name gives are not always drawn.

Key:
[1] = system: T1, JNK; assay: JNK Assay in vitro (phosphorylation of GST-ATF2 (19-96) with [γ-33P] ATP); assay type: biochemical; settings: JNK isoform not stated for Table 1 (method describes human JNK1α1, JNK2α2, JNK3); Km concentrations of ATP and substrate
T1 construct: Human JNK2α2 assay contains 1 nM enzyme; Human JNK1α1 assay contains 2 nM enzyme
Description: JNK activity was measured by phosphorylation of GST-ATF2 (19-96) with [γ-^33P] ATP. The enzyme reaction was conducted at Km concentrations of ATP and the substrate at final volume of 40 μl in buffer containing 25 mM HEPES, pH 7.5, 2 mM dithiothreitol, 150 mM NaCl, 20 mM MgCl2, 0.001% Tween® 20, 0.1% BSA and 10% DMSO. Human JNK2α2 assay contains 1 nM enzyme, 1 μM ATF2, 8 μM ATP with 1 uCi [γ-^33P] ATP. Human JNK1α1 assay contains 2 nM enzyme, 1 μM ATF2, 6 μM ATP with 1 μCi [γ-^33P] ATP. Human JNK3 (Upstate Biotech #14-501M) assay contains 2 nM enzyme, 1 μM ATF2, 4 μM ATP with 1 μCi [γ-^33P] ATP. The enzyme assay was carried out in the presence or absence of several compound concentrations. JNK and compound were pre-incubated for 10 min., followed by initiation of the enzymatic reaction by adding ATP and the substrate. The reaction mixture was incubated at 30° C. for 30 min. At the end of incubation, the reaction was terminated by transferring 25 μl of the reaction mixture to 150 μl of 10% glutathione Sepharose® slurry (Amersham #27-4574-01) containing 135 mM EDTA. The reaction product was captured on the affinity resin, and washed on a filtration plate (Millipore, MABVNOB50) with phosphate buffered saline for six times to remove free radionucleotide. The incorporation of ^33P into ATF2 was quantified on a microplate scintillation counter (Packard Topcount). Compound inhibition potency on JNK was measured by IC50 value generated from ten concentration inhibition curves fitted into the 3-parameter model: % inhibition=Maximum/(1+(IC50/[Inhibitor])^slope). Data were analyzed on Microsoft Excel for parameter estimation.

SMILES | IC50 [1] | melting point
O=C(O)C1CCN(C(=O)[C@H]2CC[C@H](Nc3nccc(-n4ccc5c(OCC6CCS(=O)(=O)C6)cccc54)n3)CC2)CC1 (stereo partly drawn) [Compound 8, 1-(4-{4-[4-(1,1-Dioxo-tetrahydro-1λ^6-thiophen-3-ylmethoxy)-indol-1-yl]-pyrimidin-2-ylamino}-cyclohexanecarbonyl)-piperidine-4-carboxylic acid] | 0.0708 µM | 172 to 174 °C
CS(=O)(=O)CCCOc1cccc2c1ccn2-c1ccnc(N[C@H]2CC[C@H](C(=O)N3CCC(C(N)=O)CC3)CC2)n1 [Compound 5, 1-(4-{4-[4-(3-Methanesulfonyl-propoxy)-indol-1-yl]-pyrimidin-2-ylamino}-cyclohexanecarbonyl)-piperidine-4-carboxylic acid amide] | 0.0917 µM | 219 to 221 °C
CC(C)(O)C1CCN(C(=O)[C@H]2CC[C@H](Nc3nccc(-n4ccc5c(OCCCS(C)(=O)=O)cccc54)n3)CC2)CC1 [Compound 6, [4-(1-Hydroxy-1-methyl-ethyl)-piperidin-1-yl]-(4-{4-[4-(3-methanesulfonyl-propoxy)-indol-1-yl]-pyrimidin-2-ylamino}-cyclohexyl)-methanone] | 0.086 µM | 196 to 198 °C
CCOC(=O)C1(C)CCN(C(=O)[C@H]2CC[C@H](Nc3nccc(-n4ccc5c(OCCCS(C)(=O)=O)cccc54)n3)CC2)CC1 [Compound 10, 1-(4-{4-[4-(3-Methanesulfonyl-propoxy)-indol-1-yl]-pyrimidin-2-ylamino}-cyclohexanecarbonyl)-4-methyl-piperidine-4-carboxylic acid ethyl ester] | 0.0584 µM | 171 to 173 °C
CCOC1CC2CCC(C1)N2C(=O)[C@H]1CC[C@H](Nc2nccc(-n3ccc4c(OCCCS(C)(=O)=O)cccc43)n2)CC1 (stereo partly drawn) (as salt: salt) [Compound 26, (3-Ethoxy-8-aza-bicyclo[3.2.1]oct-8-yl)-(4-{4-[4-(3-methanesulfonyl-propoxy)-indol-1-yl]-pyrimidin-2-ylamino}-cyclohexyl)-methanone; compound with formic acid] |  | 125 to 130 °C
CCOC(=O)C1CCN(C(=O)[C@H]2CC[C@H](Nc3nccc(-n4ccc5c(OCC6CCS(=O)(=O)C6)cccc54)n3)CC2)CC1 (stereo partly drawn) [Compound 7, 1-(4-{4-[4-(1,1-Dioxo-tetrahydro-1λ^6-thiophen-3-ylmethoxy)-indol-1-yl]-pyrimidin-2-ylamino}-cyclohexanecarbonyl)-piperidine-4-carboxylic acid ethyl ester] | 0.0514 µM | 209 to 211 °C
CCCN1CC[C@@H](NC(=O)[C@H]2CC[C@H](Nc3nccc(-n4ccc5c(OCCCS(C)(=O)=O)cccc54)n3)CC2)C1 (as salt: HCl) [Compound 11, 4{4-[4-(3-Methanesulfonyl-propoxy)-indol-1-yl]-pyrimidin-2-ylamino}-cyclohexanecarboxylic acid ((R)-1-propyl-pyrrolidin-3-yl)-amide] |  | 140 to 142 °C
CCOC(=O)CC1CCN(C(=O)[C@H]2CC[C@H](Nc3nccc(-n4ccc5c(OCCCS(C)(=O)=O)cccc54)n3)CC2)CC1 [Compound 1, [1-(4-{4-[4-(3-Methanesulfonyl-propoxy)-indol-1-yl]-pyrimidin-2-ylamino}-cyclohexanecarbonyl)-piperidin-4-yl]-acetic acid ethyl ester] | 0.55 µM | 175 to 177 °C
CCN1CCN(C(=O)[C@H]2CC[C@H](Nc3nccc(-n4ccc5c(OCC6CCS(=O)(=O)C6)cccc54)n3)CC2)C[C@H]1C (stereo partly drawn) (as salt: HCl) [Compound 3, (4-{4-[4-(1,1-Dioxo-tetrahydro-1λ^6-thiophen-3-ylmethoxy)-indol-1-yl]-pyrimidin-2-ylamino}-cyclohexyl)-((R)-4-ethyl-3-methyl-piperazin-1-yl)-methanone] |  | 225 °C
CCN1CCN(C(=O)[C@H]2CC[C@H](Nc3nccc(-n4ccc5c(OCC6CCS(=O)(=O)C6)cccc54)n3)CC2)C[C@@H]1C (stereo partly drawn) (as salt: HCl) [Compound 9, (4-{4-[4-(1,1-Dioxo-tetrahydro-1λ^6-thiophen-3-ylmethoxy)-indol-1-yl]-pyrimidin-2-ylamino}-cyclohexyl)-((S)-4-ethyl-3-methyl-piperazin-1-yl)-methanone] |  | 198 to 204 °C
CS(=O)(=O)CCCOc1cccc2c1ccn2-c1ccnc(N[C@H]2CC[C@H](C(=O)N3CCC[C@H](C(=O)O)C3)CC2)n1 [Compound 4, (S)-1-(4-{4-[4-(3-Methanesulfonyl-propoxy)-indol-1-yl]-pyrimidin-2-ylamino}-cyclohexanecarbonyl)-piperidine-3-carboxylic acid] | 0.107 µM | 270 to 276 °C

More lines, now with the values ahead:

IC50 [1] | melting point | SMILES
0.163 µM | 185 to 190 °C | CCCN1CCC[C@@H](NC(=O)[C@H]2CC[C@H](Nc3nccc(-n4ccc5c(OCCCS(C)(=O)=O)cccc54)n3)CC2)C1 [Compound 16, 4-{4-[4-(3-Methanesuflonyl-propoxy)-indol-1-yl]-pyrimidin-2-ylamino}-cyclohexanecarboxylic acid ((S)-1-propyl-piperidin-3-yl)-amide]
0.0938 µM | 229 to 231 °C | CCN1CC[C@@H](NC(=O)[C@H]2CC[C@H](Nc3nccc(-n4ccc5c(OCCCS(C)(=O)=O)cccc54)n3)CC2)C1 [Compound 12, 4-{4-[4-(3-Methanesulfonyl-propoxy)-indol-1-yl]-pyrimidin-2-ylamino}-cyclohexanecarboxylic acid ((R)-1-ethyl-pyrrolidin-3-yl)-amide]
0.153 µM | 174 °C | CC1(C(=O)O)CCN(C(=O)[C@H]2CC[C@H](Nc3nccc(-n4ccc5c(OCCCS(C)(=O)=O)cccc54)n3)CC2)CC1 [Compound 18, 1-(4-{4-[4-(3-Methanesulfonyl-propoxy)-indol-1-yl]-pyrimidin-2-ylamino}-cyclohexanecarbonyl)-4-methyl-piperidine-4-carboxylic acid]
 | 185 to 190 °C | CCCN1CCC[C@H](NC(=O)[C@H]2CC[C@H](Nc3nccc(-n4ccc5c(OCCCS(C)(=O)=O)cccc54)n3)CC2)C1 (stereo in doubt) (as salt: HCl) [Compound 14, 4-{4-[4-(3-Methanesulfonyl-propoxy)-indol-1-yl]-pyrimidin-2-ylamino}-cyclohexanecarboxylic acid ((R)-1-propyl-piperidin-3-yl)-amide]
 | 205 to 210 °C | CCN1CCCC(NC(=O)[C@H]2CC[C@H](Nc3nccc(-n4ccc5c(OCC6CCS(=O)(=O)C6)cccc54)n3)CC2)C1 (stereo partly drawn) (as salt: HCl) [Compound 29, 4-{4-[4-(1,1-Dioxo-tetrahydro-1λ^6-thiophen-3-ylmethoxy)-indol-1-yl]-pyrimidin-2-ylamino}-cyclohexanecarboxylic acid (1-ethyl-piperidin-3-yl)-amide]
 | 245 to 250 °C | C[C@H]1CN(C(=O)[C@H]2CC[C@H](Nc3nccc(-n4ncc5c(OCC6CCS(=O)(=O)C6)cccc54)n3)CC2)CCN1 (stereo partly drawn) (as salt: HCl) [Compound 25, (4-{4-[4-(1,1-Dioxo-tetrahydro-1λ^6-thiophen-3-ylmethoxy)-indazol-1-yl]-pyrimidin-2-ylamino}-cyclohexyl)-((S)-3-methyl-piperazin-1-yl)-methanone]
